Source: US11524968B2, “Heterocyclic compound as a protein kinase inhibitor” (HK inno.N Corporation, priority 2017, dated 2022)

The molecules below were run against JAK1 (Homo sapiens (Human), UniProt P23458) (assay: Analysis of JAK1 activity inhibition ability (ADP-Glo Kinase Assay)). Conditions: JAK1 enzyme, ADP-Glo luminescence, ATP 250 uM, IRS-itide substrate, 30° C. 40 minutes; read-out: IC50.
Format: biochemical
Summary of the method: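 ADP-Glo luminescence read-out of ADP production, with IC50 taken as the concentration halving JAK1 activity relative to control. Enzyme was incubated 40 min at 30 °C with compound, IRS-itide (40 ng/mL) and ATP (250 uM), concentrations as prepared in pH 7.5 Tris-HCl/MgCl2/BSA/DTT buffer.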

Chain of JAK1 (P23458 whole entry): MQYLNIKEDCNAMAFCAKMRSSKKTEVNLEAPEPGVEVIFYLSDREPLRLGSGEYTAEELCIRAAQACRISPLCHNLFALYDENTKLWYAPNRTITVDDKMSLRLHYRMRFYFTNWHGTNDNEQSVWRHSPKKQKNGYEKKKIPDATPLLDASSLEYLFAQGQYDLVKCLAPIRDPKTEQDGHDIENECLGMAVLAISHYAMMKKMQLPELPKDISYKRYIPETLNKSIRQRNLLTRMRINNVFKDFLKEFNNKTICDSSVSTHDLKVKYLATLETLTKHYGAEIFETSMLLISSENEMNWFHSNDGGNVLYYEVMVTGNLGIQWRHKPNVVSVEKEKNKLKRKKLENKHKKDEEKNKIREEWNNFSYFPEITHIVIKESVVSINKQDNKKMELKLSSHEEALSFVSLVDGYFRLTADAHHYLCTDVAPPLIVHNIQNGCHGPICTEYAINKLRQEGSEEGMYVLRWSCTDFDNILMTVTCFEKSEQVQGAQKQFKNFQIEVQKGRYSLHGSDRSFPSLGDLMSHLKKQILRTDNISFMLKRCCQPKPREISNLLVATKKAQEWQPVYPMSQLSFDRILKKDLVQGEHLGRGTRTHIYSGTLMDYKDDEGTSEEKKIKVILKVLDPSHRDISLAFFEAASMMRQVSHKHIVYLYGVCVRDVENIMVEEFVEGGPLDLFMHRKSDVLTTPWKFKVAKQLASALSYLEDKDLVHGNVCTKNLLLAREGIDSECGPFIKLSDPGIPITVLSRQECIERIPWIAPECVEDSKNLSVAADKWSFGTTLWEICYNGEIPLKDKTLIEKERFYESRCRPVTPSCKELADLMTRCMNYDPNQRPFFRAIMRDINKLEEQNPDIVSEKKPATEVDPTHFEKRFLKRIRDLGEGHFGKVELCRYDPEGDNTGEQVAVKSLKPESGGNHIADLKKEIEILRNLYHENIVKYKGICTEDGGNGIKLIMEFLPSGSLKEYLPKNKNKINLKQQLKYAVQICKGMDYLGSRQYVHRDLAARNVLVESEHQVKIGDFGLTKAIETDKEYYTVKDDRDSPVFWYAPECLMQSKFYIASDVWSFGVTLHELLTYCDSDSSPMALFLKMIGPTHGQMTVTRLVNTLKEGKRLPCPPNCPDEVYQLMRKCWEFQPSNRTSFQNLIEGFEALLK

SMILES | IC50
O=C(Nc1cc(-c2ccc(NS(=O)(=O)CF)cc2)c2cc[nH]c2n1)C1CC1 [Example 49, N-(4-(4-((fluoromethyl)sulfonamido)phenyl)-1H-pyrrolo[2,3-b]pyridin-6-yl)cyclopropanecarboxamide] | 20 to 200 nM
O=C(Nc1nc(-c2ccc(NS(=O)(=O)CCCC(F)(F)F)cc2)c2cc[nH]c2n1)C1CC1 [Example 184, N-(4-(4-((4,4,4-trifluorobutyl)sulfonamido)phenyl)-7H-pyrrolo[2,3-d]pyrimidin-2-yl)cyclopropanecarboxamide] | 20 to 200 nM
O=C(Nc1cc(-c2ccc(NS(=O)(=O)C(F)F)cc2)c2cc[nH]c2n1)C1CC1 [Example 50, N-(4-(4-((difluoromethyl)sulfonamido)phenyl)-1H-pyrrolo[2,3-b]pyridin-6-yl)cyclopropanecarboxamide] | 20 to 200 nM
N#CCC(=O)N1C2C=C(c3cc(NC(=O)C4CC4)nc4[nH]ccc34)CC1CC2 (centres unmarked) [Example 257, N-(4-(8-(2-cyanoacetyl)-8-azabicyclo[3.2.1]oct-2-en-3-yl)-1H-pyrrolo[2,3-b]pyridin-6-yl)cyclopropanecarboxamide] | < 20 nM
CN(CC(F)(F)F)S(=O)(=O)N1CC=C(c2cc(NC(=O)C3CC3)nc3[nH]ccc23)CC1 [Example 233, N-(4-(1-(N-methyl-N-(2,2,2-trifluoroethyl)sulfamoyl)-1,2,3,6-tetrahydropyridin-4-yl)-1H-pyrrolo[2,3-b]pyridin-6-yl)cyclopropanecarboxamide] | 20 to 200 nM
O=C(Nc1cc(C2=CC3CCCC(C2)N3C(=O)c2ccncc2F)c2cc[nH]c2n1)C1CC1 (centres unmarked) [Example 369, N-(4-(9-(3-fluoroisonicotinoyl)-9-azabicyclo[3.3.1]non-2-en-3-yl)-1H-pyrrolo[2,3-b]pyridin-6-yl)cyclopropanecarboxamide] | 20 to 200 nM
NC(=O)c1ccc(S(=O)(=O)Nc2ccc(-c3nc(NC(=O)C4CC4)nc4[nH]ccc34)cc2)cc1 [Example 200, 4-(N-(4-(2-(cyclopropanecarboxamido)-7H-pyrrolo[2,3-d]pyrimidin-4-yl)phenyl)sulfamoyl)benzamide] | > 200 nM
C=CCS(=O)(=O)Nc1ccc(-c2cc(NC(=O)C3CC3)nc3[nH]ccc23)cc1F [Example 71, N-(4-(4-(allylsulfonamido)-3-fluorophenyl)-1H-pyrrolo[2,3-b]pyridin-6-yl)cyclopropanecarboxamide] | < 20 nM
O=C(Nc1cc(C2=CC3CCC(C2)N3C(=O)NCC(F)(F)F)c2cc[nH]c2n1)C1CC1 (centres unmarked) [Example 448, 3-(6-(cyclopropanecarboxamido)-1H-pyrrolo[2,3-b]pyridin-4-yl)-N-(2,2,2-trifluoroethyl)-8-azabicyclo[3.2.1]oct-2-ene-8-carboxamide] | < 20 nM
N#CCCC(=O)N1C2C=C(c3cc(NC(=O)C4CC4)nc4[nH]ccc34)CC1CC2 (centres unmarked) [Example 255, N-(4-(8-(3-cyanopropanoyl)-8-azabicyclo[3.2.1]oct-2-en-3-yl)-1H-pyrrolo[2,3-b]pyridin-6-yl)cyclopropanecarboxamide] | < 20 nM
CC1CN(S(=O)(=O)Nc2ccc(-c3cc(NC(=O)C4CC4)nc4[nH]ccc34)cc2)CC(C)O1 (centres unmarked) [Example 220, N-(4-(4-((2,6-dimethylmorpholine)-4-sulfonamido)phenyl)-1H-pyrrolo[2,3-b]pyridin-6-yl)cyclopropanecarboxamide] | 20 to 200 nM
N#CCC1(N2CC=C(c3cc(NC(=O)C4CC4)nc4[nH]ccc34)CC2)COC1 [Example 612, N-(4-(1-(3-(cyanomethyl)oxetan-3-yl)-1,2,3,6-tetrahydropyridin-4-yl)-1H-pyrrolo[2,3-b]pyridine-6-yl) cyclopropanecarboxamide] | > 200 nM
O=C(Nc1cc(C2=CCN(S(=O)(=O)N3CCOCC3)CC2)c2cc[nH]c2n1)C1CC1 [Example 234, N-(4-(1-(morpholinosulfonyl)-1,2,3,6-tetrahydropyridin-4-yl)-1H-pyrrolo[2,3-b]pyridin-6-yl)cyclopropanecarboxamide] | 20 to 200 nM
N#CCCCS(=O)(=O)N1CC=C(c2cc(NC(=O)C3CC3)nc3[nH]ccc23)CC1 [Example 170, N-(4-(1-((3-cyanopropyl)sulfonyl)-1,2,3,6-tetrahydropyridin-4-yl)-1H-pyrrolo[2,3-b]pyridin-6-yl)cyclopropanecarboxamide] | 20 to 200 nM

Now from value to molecule:

IC50 | SMILES
20 to 200 nM | O=C(Nc1cc(C2=CCN(C(=O)Cc3ccc(F)c(F)c3)CC2)c2cc[nH]c2n1)C1CC1 [Example 276, N-(4-(1-(2-(3,4-difluorophenyl)acetyl)-1,2,3,6-tetrahydropyridin-4-yl)-1H-pyrrolo[2,3-b]pyridin-6-yl)cyclopropanecarboxamide]
< 20 nM | O=C(Nc1nc(-c2ccc(NCc3ccc(F)cc3)cc2)c2cc[nH]c2n1)C1CC1 [Example 473, N-(4-(4-((4-fluorobenzyl)amino)phenyl)-7H-pyrrolo[2,3-d]pyrimidin-2-yl)cyclopropanecarboxamide]
< 20 nM | O=C1CCN(Cc2ccc(-c3cc(NC(=O)C4CC4)nc4[nH]ccc34)cc2)CC1 [Example 585, N-(4-(4-((4-oxopiperidin-1-yl)methyl)phenyl)-1H-pyrrolo[2,3-b]pyridin-6-yl)cyclopropanecarboxamide]
> 200 nM | N#CCCC(=O)N1C[C@@H]2C[C@H]1CN2c1cc(NC(=O)C2CC2)nc2[nH]ccc12 [Example 680, N-(4-((1S,4S)-5-(3-cyanopropanoyl)-2,5-diazabicyclo[2.2.1]heptan-2-yl)-1H-pyrrolo[2,3-b]pyridin-6-yl)cyclopropanecarboxamide]
20 to 200 nM | CC1CN(C(=O)Cc2cccc(F)c2)CC=C1c1cc(NC(=O)C2CC2)nc2[nH]ccc12 (centres unmarked) [Example 346, N-(4-(1-(2-(3-fluorophenyl)acetyl)-3-methyl-1,2,3,6-tetrahydropyridin-4-yl)-1H-pyrrolo[2,3-b]pyridin-6-yl)cyclopropanecarboxamide]
> 200 nM | CC1CN(C(=O)c2ccc(C(C)(C)C)[nH]c2=O)CC=C1c1cc(NC(=O)C2CC2)nc2[nH]ccc12 (centres unmarked) [Example 321, N-(4-(1-(6-(tert-butyl)-2-oxo-1,2-dihydropyridine-3-carbonyl)-3-methyl-1,2,3,6-tetrahydropyridin-4-yl)-1H-pyrrolo[2,3-b]pyridin-6-yl)cyclopropanecarboxamide]
20 to 200 nM | CC1CN(C(=O)c2ccc(Cl)cc2)CC=C1c1cc(NC(=O)C2CC2)nc2[nH]ccc12 (centres unmarked) [Example 333, N-(4-(1-(4-chlorobenzoyl)-3-methyl-1,2,3,6-tetrahydropyridin-4-yl)-1H-pyrrolo[2,3-b]pyridin-6-yl)cyclopropanecarboxamide]
> 200 nM | Cc1c(NC(=O)C2CC2)nc2[nH]ccc2c1C1=CCN(C(=O)OC(C)(C)C)CC1 [Example 457, tert-butyl 4-(6-(cyclopropanecarboxamido)-5-methyl-1H-pyrrolo[2,3-b]pyridin-4-yl)-3,6-dihydropyridine-1 (2H)-carboxylate]
< 20 nM | O=C(Nc1cc(-c2cc(F)c(CN3CCOCC3)c(F)c2)c2cc[nH]c2n1)C1CC1 [Example 590, N-(4-(3,5-difluoro-4-(morpholinomethyl)phenyl)-1H-pyrrolo[2,3-b]pyridin-6-yl)cyclopropanecarboxamide]
> 200 nM | CCNC(=S)N1CCC(c2cc(NC(=O)C3CC3)nc3[nH]ccc23)CC1 [Example 658, N-(4-(1-(ethylcarbamothioyl)piperidin-4-yl)-1H-pyrrolo[2,3-b]pyridin-6-yl)cyclopropanecarboxamide]
20 to 200 nM | C=CC(=O)N1CC=C(c2cc(NC(=O)C3CC3)nc3[nH]ccc23)CC1 [Example 266, N-(4-(1-acryloyl-1,2,3,6-tetrahydropyridin-4-yl)-1H-pyrrolo[2,3-b]pyridin-6-yl)cyclopropanecarboxamide]
< 20 nM | CC1CN(C(=O)c2ccnc(Cl)c2)CC=C1c1cc(NC(=O)C2CC2)nc2[nH]ccc12 (centres unmarked) [Example 310, N-(4-(1-(2-chloroisonicotinoyl)-3-methyl-1,2,3,6-tetrahydropyridin-4-yl)-1H-pyrrolo[2,3-b]pyridin-6-yl)cyclopropanecarboxamide]
> 200 nM | O=C(Nc1cc(C2=CCC(NC3CCN(C(=O)c4cc(F)cc(F)c4)CC3)CC2)c2cc[nH]c2n1)C1CC1 (centres unmarked) [Example 491, N-(4-(4-((1-(3,5-difluorobenzoyl)piperidin-4-yl)amino)cyclohex-1-en-1-yl)-1H-pyrrolo[2,3-b]pyridin-6-yl)cyclopropanecarboxamide]
20 to 200 nM | O=C(Nc1cc(-c2ccc(CC(=O)N3CC[S+]([O-])CC3)cc2)c2cc[nH]c2n1)C1CC1 [Example 574, N-(4-(4-(2-(1-oxidothiomorpholino)-2-oxoethyl)phenyl)-1H-pyrrolo[2,3-b]pyridin-6-yl)cyclopropanecarboxamide]
> 200 nM | CC1CN(C(=O)c2ccnc(N)c2)CC=C1c1cc(NC(=O)C2CC2)nc2[nH]ccc12 (centres unmarked) [Example 381, N-(4-(1-(2-aminoisonicotinoyl)-3-methyl-1,2,3,6-tetrahydropyridin-4-yl)-1H-pyrrolo[2,3-b]pyridin-6-yl)cyclopropanecarboxamide]
> 200 nM | O=C(Nc1cc(C2=CCC(NC3CCN(C(=O)C4CCCCC4)CC3)CC2)c2cc[nH]c2n1)C1CC1 (centres unmarked) [Example 492, N-(4-(4-((1-(cyclohexanecarbonyl)piperidin-4-yl)amino)cyclohex-1-en-1-yl)-1H-pyrrolo[2,3-b]pyridin-6-yl)cyclopropanecarboxamide]
20 to 200 nM | Cc1cc(CC(=O)N2CCS(=O)(=O)CC2)ccc1-c1cc(NC(=O)C2CC2)nc2[nH]ccc12 [Example 545, N-(4-(4-(2-(1,1-dioxidothiomorpholino)-2-oxoethyl)-2-methylphenyl)-1H-pyrrolo[2,3-b]pyridin-6-yl)cyclopropanecarboxamide]
20 to 200 nM | CC1CN(C(=O)c2ccc(S(C)(=O)=O)cc2)CC=C1c1cc(NC(=O)C2CC2)nc2[nH]ccc12 (centres unmarked) [Example 354, N-(4-(3-methyl-1-(4-(methylsulfonyl)benzoyl)-1,2,3,6-tetrahydropyridin-4-yl)-1H-pyrrolo[2,3-b]pyridin-6-yl)cyclopropanecarboxamide]
